Laboratory results from patent publication US6733996B2, “Methods for regulating gene expression using light” (Trustees of Dartmouth College, priority 2002, dated 2004).

Target: T1, WC-1/WC-2 (White Collar Complex) (Neurospora crassa, UniProt Q01371)
T1 construct: in vitro transcribe/translate full-length WC-1 using pAF60 as template and full length WC-2 using pGEM®/WC-2 as template; made in house; host or cells: cell-free: TNT-Coupled Reticulocyte Lysate system (Promega), templates pAF60 (WC-1) and pGEM/WC-2
Assay: Electrophoretic mobility shift assay of in vitro-translated WC-1 and WC-2 binding to frq LRE probe, with or without flavin cofactor and light
Details: for Average amount of faster migrating complex ± SEM / Average amount of slower migrating complex ± SEM: +FAD (1 mM in translation reaction), in vitro-translated WC-1 and WC-2, densitometry; for Light regulation of LRE binding of in vitro-translated WC-1/WC-2: flavin added to the WC-1 translation reaction, 1 mM
Description: In vitro coupled transcription/translation was conducted to produce WC-1 and WC-2 proteins for subsequent use in binding reactions. WC-1 and WC-2 together were able to bind to the LREs as not just one, but two distinct complexes with mobilities similar to those seen using nuclear extracts. […] These complexes were not seen when either protein was used alone or when unprogrammed lysate was used.
In vitro translation experiments and subsequent binding reactions were repeated, this time adding FMN or flavin adenine dinucleotide (FAD) to the WC-1 translation reaction. FAD is the flavin cofactor for both the blue light-sensing cryptochromes (Cashmore, et al. (1999) Science 284:760) and the Euglena photoactivated adenyl cyclase (Iseki, et al. (2001) Nature 415:1047).
When FAD was combined with WC-1 and WC-2, light caused a marked increase in the amount of slower migrating complex relative to the reactions not treated with light. Furthermore, a marked increase in the slower migrating complex was observed, as compared to reactions lacking FAD treated with or without light. […] The addition of FAD confers light responsiveness to the WCC, similar to that seen with the nuclear extracts. In the dark, a faster migrating WC-1/WC-2 dimeric complex dominates, yielding in the presence of light to a larger, slower migrating WC-1/WC-2 multimeric complex. WC-1 with FAD, exposed to light in the absence of WC-2, can initiate the mobility shift when subsequently combined in the dark with WC-2. Furthermore, WC-1 can be reconstituted with free FAD after in vitro translation. Thus, it is WC-1 that is the initial active protein partner in mediating the photoresponse.
The probes consisted of two oligonucleotides of equal length annealed together and end-labeled using T4 polynucleotide kinase and [^γ-32P]ATP. Unincorporated ATP was removed using a BIO-GEL® P-30 chromatography column (BIO-RAD®, Hercules, Calif.), and probe was diluted to a final concentration of 0.018 μM. Oligonucleotide pairs were annealed for use as probe or unlabeled competitor. Distal LRE probe, the unrelated 42 bp competitor, and the mutated distal LRE competitor were generated with oligonucleotide pairs ACF57/ACF58, ACF40/ACF48 and ACF67/ACF68, respectively. The proximal LRE probe and mutated proximal LRE competitor were generated with oligonucleotide pairs ACF62/ACF63 and ACF69/ACF70, respectively.
Binding reactions using nuclear protein extracts contained 1× binding buffer, […], 0.1 μg poly(dI-dC), 1 μl probe, 0.5 μl of normal rabbit sera (Pocono Rabbit Farm, Canadensis, Pa.), and 3 μg of nuclear protein extract, which was added last to the binding reactions, in a total volume of 20 μl. In reactions that contained antisera, 1 μl anti-WC-1, 1 μl anti-WC-2, or 0.5 μl anti-FRQ was used. Binding reactions using in vitro translated proteins contained 1× binding buffer, 1 μg poly(dI-dC), 1 μl probe, and 6 μl of the in vitro translation reaction in a total volume of 20 μl . Binding reactions were incubated for 30 minutes on ice prior to electrophoresis at 4° C. on nondenaturing 4% polyacrylamide gels containing 0.5×TBE and 2.5% (v/v) glycerol. Gels were dried and visualized using a PhosphorImager and IMAGEQUANT® software (Molecular Dynamics, Sunnyvale, Calif.). Binding reactions and gel electrophoreses were performed under red lights.
TNT®-Coupled Reticulocyte Lysate system (PROMEGA®, Madison, Wis.) was used according to the manufacturer's directions to in vitro transcribe/translate full-length WC-1 using pAF60 as template and full length WC-2 using pGEM®/WC-2 as template. 8 μM ZnCl2 was added to each reaction. Where indicated, FAD (SIGMA®, St. Louis, Mo.) and FMN (SIGMA®, St. Louis, Mo.) were added to a final concentration of 1 mM. Reactions were conducted under red lights.

T1 sequence (Q01371 whole entry): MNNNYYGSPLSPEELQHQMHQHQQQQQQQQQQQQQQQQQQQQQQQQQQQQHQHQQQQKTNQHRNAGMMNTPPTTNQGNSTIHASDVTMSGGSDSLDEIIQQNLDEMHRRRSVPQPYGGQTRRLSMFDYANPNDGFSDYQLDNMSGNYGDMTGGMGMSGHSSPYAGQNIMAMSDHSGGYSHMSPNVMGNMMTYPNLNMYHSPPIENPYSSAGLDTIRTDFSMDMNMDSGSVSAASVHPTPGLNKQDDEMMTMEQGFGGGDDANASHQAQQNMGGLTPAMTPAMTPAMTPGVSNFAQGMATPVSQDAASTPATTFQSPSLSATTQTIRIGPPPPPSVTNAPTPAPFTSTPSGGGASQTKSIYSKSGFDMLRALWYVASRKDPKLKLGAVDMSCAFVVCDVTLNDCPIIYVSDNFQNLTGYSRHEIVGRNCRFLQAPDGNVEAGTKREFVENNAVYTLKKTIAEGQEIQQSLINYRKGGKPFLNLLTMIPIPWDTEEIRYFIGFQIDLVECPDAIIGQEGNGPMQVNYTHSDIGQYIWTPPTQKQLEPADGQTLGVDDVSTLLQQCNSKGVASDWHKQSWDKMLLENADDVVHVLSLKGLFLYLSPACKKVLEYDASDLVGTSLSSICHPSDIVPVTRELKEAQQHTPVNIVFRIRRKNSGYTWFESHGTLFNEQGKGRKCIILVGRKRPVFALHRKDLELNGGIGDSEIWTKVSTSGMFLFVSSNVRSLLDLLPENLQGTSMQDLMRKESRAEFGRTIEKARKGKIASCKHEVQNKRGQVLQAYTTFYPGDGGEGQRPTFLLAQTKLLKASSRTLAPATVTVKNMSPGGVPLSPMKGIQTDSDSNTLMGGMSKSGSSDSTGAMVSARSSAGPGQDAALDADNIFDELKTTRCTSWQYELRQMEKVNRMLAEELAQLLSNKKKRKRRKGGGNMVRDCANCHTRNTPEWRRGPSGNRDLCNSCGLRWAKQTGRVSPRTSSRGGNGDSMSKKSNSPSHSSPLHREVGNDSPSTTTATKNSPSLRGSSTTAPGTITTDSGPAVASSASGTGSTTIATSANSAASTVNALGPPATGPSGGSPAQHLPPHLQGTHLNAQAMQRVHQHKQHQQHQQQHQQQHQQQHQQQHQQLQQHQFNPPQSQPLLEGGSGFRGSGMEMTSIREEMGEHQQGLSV
T1 sequence (P78714 whole entry, further chain): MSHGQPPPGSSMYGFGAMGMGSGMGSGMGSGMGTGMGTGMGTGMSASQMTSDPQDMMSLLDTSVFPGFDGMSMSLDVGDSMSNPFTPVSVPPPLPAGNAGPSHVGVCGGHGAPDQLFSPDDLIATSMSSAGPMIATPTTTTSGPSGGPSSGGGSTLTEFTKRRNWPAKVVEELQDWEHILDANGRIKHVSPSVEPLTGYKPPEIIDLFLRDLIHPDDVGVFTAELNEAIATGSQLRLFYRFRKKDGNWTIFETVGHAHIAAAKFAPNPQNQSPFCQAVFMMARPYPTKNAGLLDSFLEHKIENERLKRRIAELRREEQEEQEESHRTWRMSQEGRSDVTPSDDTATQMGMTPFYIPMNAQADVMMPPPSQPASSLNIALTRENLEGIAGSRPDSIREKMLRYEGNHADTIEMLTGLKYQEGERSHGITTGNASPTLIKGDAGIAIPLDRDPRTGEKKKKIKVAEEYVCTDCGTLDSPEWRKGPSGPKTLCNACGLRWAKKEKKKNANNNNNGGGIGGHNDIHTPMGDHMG

SMILES | Average amount of faster migrating complex ± SEM (Dark) | Average amount of slower migrating complex ± SEM (Dark) | Average amount of faster migrating complex ± SEM (Light) | Average amount of slower migrating complex ± SEM (Light) | Light regulation of LRE binding of in vitro-translated WC-1/WC-2
Cc1cc2nc3c(=O)[nH]c(=O)nc-3n(C[C@H](O)[C@H](O)[C@H](O)COP(=O)(O)OP(=O)(O)OC[C@H]3O[C@@H](n4cnc5c(N)ncnc54)[C@H](O)[C@@H]3O)c2cc1C [FAD, flavin adenine dinucleotide] | 334119 ± 43086 | 56912 ± 3055 | 264723 ± 22687 | 237163 ± 9706 | conferred light sensitivity
Cc1cc2nc3c(=O)[nH]c(=O)nc-3n(C[C@H](O)[C@H](O)[C@H](O)COP(=O)(O)O)c2cc1C [FMN, flavin mononucleotide] | – | – | – | – | No light regulation of binding
